Test results taken from ChEMBL document CHEMBL3102815, “Structure Guided Optimization, in Vitro Activity, and in Vivo Activity of Pan-PIM Kinase Inhibitors” (ACS Med Chem Lett, 2013).

How the values were obtained:
[1] = target: T1, Serine/threonine-protein kinase pim-3 (Homo sapiens, UniProt Q86V86); assay: Inhibition of PIM3 (unknown origin)
[2] = target: T2, Serine/threonine-protein kinase pim-2 (Homo sapiens, UniProt Q9P1W9)
[3] = target: T3, Serine/threonine-protein kinase pim-1 (Homo sapiens, UniProt P11309)
T3 sequence (P11309 whole entry): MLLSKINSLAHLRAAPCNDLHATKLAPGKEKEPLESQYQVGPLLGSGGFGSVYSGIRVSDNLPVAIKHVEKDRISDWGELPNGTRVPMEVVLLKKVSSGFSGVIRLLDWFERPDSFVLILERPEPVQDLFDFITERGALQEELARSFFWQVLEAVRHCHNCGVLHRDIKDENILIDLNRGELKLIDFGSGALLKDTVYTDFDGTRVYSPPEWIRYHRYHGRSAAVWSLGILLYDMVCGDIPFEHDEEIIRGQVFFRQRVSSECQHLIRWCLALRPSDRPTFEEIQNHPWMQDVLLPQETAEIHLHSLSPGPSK

EOL1 = assay: Antitumor activity against human EOL-1 cells xenografted in po dosed mouse administered daily; assay type: functional, organism-based
[4] = target: T2, Serine/threonine-protein kinase pim-2; assay: Inhibition of PIM2 (unknown origin) using NH2-AGAGRSRHSSYPAGT-OH as substrate by Kinase-Glo assay
[5] = target: T1, Serine/threonine-protein kinase pim-3; assay: Inhibition of PIM3 (unknown origin) using NH2-AGAGRSRHSSYPAGT-OH as substrate by Kinase-Glo assay
[6] = target: T3, Serine/threonine-protein kinase pim-1; assay: Inhibition of PIM1 (unknown origin) using NH2-AGAGRSRHSSYPAGT-OH as substrate by Kinase-Glo assay
[7] = target: T3, Serine/threonine-protein kinase pim-1; assay: Inhibition of PIM1 (unknown origin) using Biotin-AGAGRSRHSSYPAGT-OH as substrate after 2 hrs by AlphaScreen assay
[8] = target: T1, Serine/threonine-protein kinase pim-3; assay: Inhibition of PIM3 (unknown origin) using Biotin-AGAGRSRHSSYPAGT-OH as substrate after 2 hrs by AlphaScreen assay
[9] = target: T2, Serine/threonine-protein kinase pim-2; assay: Inhibition of PIM2 (unknown origin) using Biotin-AGAGRSRHSSYPAGT-OH as substrate after 2 hrs by AlphaScreen assay

T2 sequence (Q9P1W9 whole entry): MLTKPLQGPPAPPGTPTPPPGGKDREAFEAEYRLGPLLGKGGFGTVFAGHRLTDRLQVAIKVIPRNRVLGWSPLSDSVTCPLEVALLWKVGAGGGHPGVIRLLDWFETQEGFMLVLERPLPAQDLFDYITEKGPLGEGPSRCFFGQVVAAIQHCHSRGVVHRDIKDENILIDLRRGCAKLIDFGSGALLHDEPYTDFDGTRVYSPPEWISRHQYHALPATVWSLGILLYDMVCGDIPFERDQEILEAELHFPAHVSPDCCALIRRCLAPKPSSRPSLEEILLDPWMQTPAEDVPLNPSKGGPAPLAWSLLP

Structure (SMILES)	Ki [1] [nM]	Ki [2] [nM]	Ki [3] [nM]	also measured
CC(=O)Nc1nc(C(=O)Nc2ccncc2N2CCCCC2)cs1	140	6300	59	
C[C@H]1CN(c2ccncc2NC(=O)c2ccc(F)c(-c3c(F)cccc3F)n2)C[C@@H](N)[C@@H]1O				Activity (EOL1): Dose-dependent effect
Nc1ccc(-c2ccccc2Cl)nc1C(=O)Nc1cnccc1N1CCC[C@H](N)C1				Ki [4]: < 1 nM; Ki [5]: < 1 nM; Ki [6]: < 1 nM
COc1ccccc1-c1ccc(N)c(C(=O)Nc2cnccc2N2CCC[C@H](N)C2)n1		8		Ki [5]: < 1 nM; Ki [6]: < 1 nM
Nc1nccnc1C(=O)Nc1cnccc1N1CCNCC1	1000	> 12500	810	
Nc1cccnc1C(=O)Nc1ccccc1N1CCCCC1	12000	> 12500	3300	
Nc1nccc(-c2ccc(N)c(C(=O)Nc3cnccc3N3CCC[C@H](N)C3)n2)n1	3	16	1	
NCCC(=O)N1CCN(c2ccncc2NC(=O)c2nccnc2N)CC1	180	680	56	
Nc1ccc(-c2c(F)cccc2F)nc1C(=O)Nc1cnccc1N1CCC[C@H](N)C1				Ki [7]: 0.002 nM; Ki [8]: 0.006 nM; Ki [9]: 0.004 nM
Nc1ccc(Oc2ccccc2)nc1C(=O)Nc1cnccc1N1CCC[C@H](N)C1	15	122	4	
CC(=O)Nc1nc(C(=O)Nc2cncnc2N2CCCCC2)cs1	> 12500	> 12500	> 12500	
Nc1nccnc1C(=O)Nc1ccccc1N1CCCCC1	1500	7000	460	
Nc1nccnc1C(=O)Nc1cnccc1N1CCCCC1	90	1600	30	
Nc1ccc(-c2ccncc2)nc1C(=O)Nc1cnccc1N1CCC[C@H](N)C1	5	6		Ki [6]: < 1 nM
CC(=O)Nc1nc(C(=O)Nc2cnccc2N2CCCCC2)cs1	220	> 12500	61	
CC(=O)Nc1nc(C(=O)Nc2ccccc2N2CCCCC2)cs1	230	> 12500		

Structure (SMILES)	Ki [1] [nM]	Ki [2] [nM]	Ki [3] [nM]	also measured
Nc1ccc(-c2ccccn2)nc1C(=O)Nc1cnccc1N1CCC[C@H](N)C1	3	6		Ki [6]: < 1 nM
CN1CCC(CNc2ccc3ncc(-c4cccc(OC(F)(F)F)c4)n3n2)CC1 [SGI-1776]	24			
NCC(=O)N1CCN(c2ccncc2NC(=O)c2nccnc2N)CC1	490	2000	122	
NCC1CCCN(c2ccncc2NC(=O)c2nccnc2N)C1 (racemic)	50	700	11	
Nc1nccnc1C(=O)Nc1cnccc1N1CCC[C@H](N)C1	20	70		
Nc1ccc(-c2c(F)cccc2F)nc1C(=O)Nc1cnccc1N1CC[C@@H](O)[C@H](N)C1	0.007	0.006	0.002	
O=C(Nc1ccccc1N1CCCCC1)c1ncc[nH]1	> 12500	> 12500	> 12500	
O=C(Nc1ccccc1N1CCCCC1)c1ncccc1O	> 12500	> 12500	12300	
Nc1ccc(-c2ccccc2C(F)(F)F)nc1C(=O)Nc1cnccc1N1CCC[C@H](N)C1	3	7	3	
Nc1ccc(-c2cccnc2)nc1C(=O)Nc1cnccc1N1CCC[C@H](N)C1	4	12		Ki [6]: < 1 nM
CC(=O)Nc1nc(C(=O)Nc2cnc(N)cc2N2CCCCC2)cs1	1700	> 12500	1000	
O=C(Nc1ccccc1N1CCCCC1)c1cscn1	> 12500	> 12500	1800	
Nc1cccnc1C(=O)Nc1cnccc1N1CCC[C@H](N)C1	20	110	18	
Nc1cccc(C(=O)Nc2ccccc2N2CCCCC2)n1	11000	> 12500	2300	
CC(=O)Nc1nc(C(=O)Nc2cnc(N)nc2N2CCCCC2)cs1	> 12500	> 12500	> 12500	
